For 21 compounds, pest or weed control results are on record in patent US20250228239A1, “MOLECULES HAVING PESTICIDAL UTILITY, AND INTERMEDIATES, COMPOSITIONS, AND PROCESSES, RELATED THERETO” (priority 2024, published 2025).

Read-outs that look alike come from different tables or passages of the source.

Test [1] has as its system Beet Armyworm (Spodoptera exigua, LAPHEG). Briefly: Bioassays on Beet Armyworm (BAW), 128-well diet tray assay. Format: in vivo. Conditions: Spodoptera exigua. In a few lines: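 Percent larval mortality, averaged across eight wells, scored after five to seven days at 25° C. under 14:10 light-dark. Each well held one to five second instars feeding on diet dosed at 50 μg/cm^2 with compound from 90:10 acetone-water, solvent dried off.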

The test system of test [2] is Cabbage Looper (Trichoplusia ni, TRIPNI). Kind of test: Bioassays on Cabbage Looper (CL), 128-well diet tray assay. Format: in vivo. The settings on record: Trichoplusia ni. In a few lines: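 Each of eight wells receives artificial diet treated at 50 μg/cm^2 with the test molecule, then one to five second-instar larvae. Incubation runs five to seven days at 25° C with a 14:10 light-dark cycle under vented covers. Mortality is scored per well as a percentage and averaged.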

Setting [3] is: Table ABC: Biological Results, species BAW, read-out: BAW.
[4] abbreviates: Table ABC: Biological Results, species CL, read-out: CL.
Setting [5] is: Beet Armyworm, rating class, read-out: BAW.
The mark [6] stands for this setting: Cabbage Looper, rating class, read-out: CL.
[7] abbreviates: Beet Armyworm, Table ABC / ABC-DP rating, read-out: BAW rating.
The mark [8] stands for this setting: Cabbage Looper, Table ABC / ABC-DP rating, read-out: CL rating.

For the compound `O=C(Nc1ccc(F)cc1F)c1cc(NC(=O)[C@H]2[C@H](c3ccc(F)c(Cl)c3)C2(Cl)Cl)cc(Cl)c1F` (relative stereo) [F1196, trans-3-Chloro-5-(2,2-dichloro-3-(3-chloro-4-fluorophenyl)cyclopropane-1-carboxamido)-N-(2,4-difluorophenyl)-2-fluorobenzamide], the pest or weed control at 50 µg/cm2 in test [1] (setting [3]) and in test [2] (setting [4]) was 50 to 100% in each case.
As for `Cc1cc(NC(=O)[C@H]2[C@H](c3ccc(F)c(Cl)c3)C2(Cl)Cl)cc(C(=O)Nc2ccc(F)c(N)c2F)c1F` (relative stereo) [F1151, trans-N-(3-Amino-2,4-difluorophenyl)-5-(2,2-dichloro-3-(3-chloro-4-fluorophenyl)cyclopropane-1-carboxamido)-2-fluoro-3-methylbenzamide], the pest or weed control at 50 µg/cm2 in test [1] (setting [3]) and in test [2] (setting [4]) was 50 to 100% each time.
In the case of `O=C(Nc1ccc(F)c(NC(=O)C2CCCO2)c1F)c1cc(NC(=O)[C@H]2[C@H](c3cccc(C(F)(F)F)c3)C2(Cl)Cl)ccc1Cl` (stereo partly drawn) [F1676, N-(3-(2-Chloro-5-((1R,3R)-2,2-dichloro-3-(3-(trifluoromethyl)phenyl)cyclopropane-1-carboxamido)benzamido)-2,6-difluorophenyl)tetrahydrofuran-2-carboxamide], the pest or weed control at 50 µg/cm2 in test [1] (setting [5]) and in test [2] (setting [6]) was 50 to 100% in each case.
As to `CCCC(=O)Nc1c(F)ccc(NC(=O)c2cc(NC(=O)[C@H]3[C@H](c4ccc(Cl)c(C(F)(F)F)c4)C3(Cl)Cl)ccc2Cl)c1F` [F1659, N-(3-Butyramido-2,4-difluorophenyl)-2-chloro-5-((1R,3R)-2,2-dichloro-3-(4-chloro-3-(trifluoromethyl)phenyl)cyclopropane-1-carboxamido)benzamide], the pest or weed control at 50 µg/cm2 in test [1] (setting [5]) and in test [2] (setting [6]) was 50 to 100% throughout.
Take `O=C(Nc1c(F)ccc(NC(=O)C(F)(F)F)c1F)c1cc(NC(=O)[C@H]2[C@H](c3cc(Cl)cc(Cl)c3)C2(Cl)Cl)cc(F)c1Cl` [F1340, 2-Chloro-5-((1R,3R)-2,2-dichloro-3-(3,5-dichlorophenyl)cyclopropane-1-carboxamido)-N-(2,6-difluoro-3-(2,2,2-trifluoroacetamido)phenyl)-3-fluorobenzamide]: the pest or weed control at 50 µg/cm2 in test [1] (setting [3]) and in test [2] (setting [4]) was 50 to 100% in each case.
With `O=C(Nc1c(F)ccc(NC(=O)C(F)(F)F)c1F)c1cc(NC(=O)[C@H]2[C@H](c3ccc(Cl)c(Cl)c3)C2(Cl)Cl)ccc1Cl` [F1537, 2-Chloro-5-((1R,3R)-2,2-dichloro-3-(3,4-dichlorophenyl)cyclopropane-1-carboxamido)-N-(2,6-difluoro-3-(2,2,2-trifluoroacetamido)phenyl)benzamide], the pest or weed control at 50 µg/cm2 in test [1] (setting [5]) and in test [2] (setting [6]) was 50 to 100% each time.
With `Cc1c(F)c(N)cc(NC(=O)c2cc(NC(=O)[C@H]3[C@H](c4ccc(F)c(C(F)(F)F)c4)C3(Cl)Cl)ccc2Cl)c1F` [F1674, N-(5-Amino-2,4-difluoro-3-methylphenyl)-2-chloro-5-((1R,3R)-2,2-dichloro-3-(4-fluoro-3-(trifluoromethyl)phenyl)cyclopropane-1-carboxamido)benzamide], the pest or weed control at 50 µg/cm2 in test [1] (setting [5]) and in test [2] (setting [6]) was 50 to 100% in each case.
In the case of `Nc1c(F)ccc(NC(=O)c2cc(NC(=O)[C@H]3[C@H](c4cc(Cl)c(Cl)c(Cl)c4)C3(Cl)Cl)cc(F)c2Cl)c1F` [F1325, N-(3-Amino-2,4-difluorophenyl)-2-chloro-5-((1R,3R)-2,2-dichloro-3-(3,4,5-trichlorophenyl)cyclopropane-1-carboxamido)-3-fluorobenzamide], the pest or weed control at 50 µg/cm2 in test [1] (setting [3]) and in test [2] (setting [4]) was 50 to 100% in each case.
With `O=C(Nc1ccc(F)c(NC(=O)C(F)(F)C(F)F)c1F)c1cc(NC(=O)[C@H]2[C@H](c3cccc(C(F)(F)F)c3)C2(Cl)Cl)ccc1Cl` [F1677, 2-Chloro-5-((1R,3R)-2,2-dichloro-3-(3-(trifluoromethyl)phenyl)cyclopropane-1-carboxamido)-N-(2,4-difluoro-3-(2,2,3,3-tetrafluoropropanamido)phenyl)benzamide], the pest or weed control at 50 µg/cm2 in test [1] (setting [5]) and in test [2] (setting [6]) was 50 to 100% in each case.
`O=C(COCC(F)(F)F)Nc1c(F)ccc(NC(=O)c2cc(NC(=O)[C@H]3[C@H](c4ccc(Cl)c(Cl)c4)C3(Cl)Cl)ccc2Cl)c1F` [F1863, 2-Chloro-5-((1R,3R)-2,2-dichloro-3-(3,4-dichlorophenyl)cyclopropane-1-carboxamido)-N-(2,4-difluoro-3-(2-(2,2,2-trifluoroethoxy)acetamido)phenyl) benzamide]: the pest or weed control at 50 µg/cm2 in test [1] (setting [7]) and in test [2] (setting [8]) was 50 to 100% throughout.
In the case of `CCO[C@H](C)C(=O)Nc1c(F)ccc(NC(=O)c2cc(NC(=O)[C@H]3[C@H](c4ccc(Cl)c(Cl)c4)C3(Cl)Cl)ccc2Cl)c1F` [F1734, 2-Chloro-5-((1R,3R)-2,2-dichloro-3-(3,4-dichlorophenyl)cyclopropane-1-carboxamido)-N-(3-((R)-2-ethoxypropanamido)-2,4-difluorophenyl)benzamide], the pest or weed control at 50 µg/cm2 in test [1] (setting [5]) and in test [2] (setting [6]) was 50 to 100% throughout.
On to `CNc1c(F)ccc(NC(=O)c2cc(NC(=O)[C@H]3[C@H](c4ccc(Cl)c(Cl)c4)C3(Cl)Cl)ccc2Cl)c1F` [F1550, 2-Chloro-5-((1R,3R)-2,2-dichloro-3-(3,4-dichlorophenyl)cyclopropane-1-carboxamido)-N-(2,4-difluoro-3-(methylamino)phenyl)benzamide], for which the pest or weed control at 50 µg/cm2 in test [1] (setting [5]) and in test [2] (setting [6]) was 50 to 100% throughout.
In the case of `O=C(Nc1cc(NC(=O)C(F)F)c(F)cc1F)c1cc(NC(=O)[C@H]2[C@H](c3cc(Cl)cc(Cl)c3)C2(Cl)Cl)cc(F)c1Cl` [F1408, 2-Chloro-5-((1R,3R)-2,2-dichloro-3-(3,5-dichlorophenyl)cyclopropane-1-carboxamido)-N-(5-(2,2-difluoroacetamido)-2,4-difluorophenyl)-3-fluorobenzamide], the pest or weed control at 50 µg/cm2 in test [1] (setting [5]) and in test [2] (setting [6]) was 50 to 100% each time.
As for `CC(=O)Nc1cc(NC(=O)c2cc(NC(=O)[C@H]3[C@H](c4cc(Cl)c(Cl)c(Cl)c4)C3(Cl)Cl)ccc2Cl)c(F)cc1F` [F1517, N-(5-Acetamido-2,4-difluorophenyl)-2-chloro-5-((1R,3R)-2,2-dichloro-3-(3,4,5-trichlorophenyl)cyclopropane-1-carboxamido)benzamide], the pest or weed control at 50 µg/cm2 in test [1] (setting [5]) and in test [2] (setting [6]) was 50 to 100% each time.
In the case of `O=C(Nc1ccc(F)cc1F)c1cc(NC(=O)[C@@H]2[C@@H](c3cc(F)c(F)c(F)c3)C2(Cl)Cl)ccc1Cl` [F1749, 2-Chloro-5-((1S,3S)-2,2-dichloro-3-(3,4,5-trifluorophenyl)cyclopropane-1-carboxamido)-N-(2,4-difluorophenyl)benzamide], the pest or weed control at 50 µg/cm2 in test [1] (setting [5]) and in test [2] (setting [6]) was 50 to 100% throughout.
In the case of `CC(=O)OCCNc1ccc(NC(=O)c2cc(NC(=O)[C@H]3[C@H](c4ccc(F)c(C(F)(F)F)c4)C3(Cl)Cl)ccc2Cl)c(C)c1` [F1144, 2-((4-(2-Chloro-5-((1R,3R)-2,2-dichloro-3-(4-fluoro-3-(trifluoromethyl)phenyl)cyclopropane-1-carboxamido)benzamido)-3-methylphenyl)amino)ethyl acetate], the pest or weed control at 50 µg/cm2 in test [1] (setting [3]) and in test [2] (setting [4]) was 50 to 100% each time.
Regarding `O=C(Nc1c(F)ccc(NC(=O)c2cc(NC(=O)[C@H]3[C@H](c4ccc(Cl)c(Cl)c4)C3(Cl)Cl)ccc2Cl)c1F)c1ccns1` [F1672], the pest or weed control at 50 µg/cm2 in test [1] (setting [5]) and in test [2] (setting [6]) was 50 to 100% each time.
For the compound `CC(OC(F)F)C(=O)Nc1c(F)ccc(NC(=O)c2cc(NC(=O)[C@H]3[C@H](c4ccc(F)c(C(F)(F)F)c4)C3(Cl)Cl)ccc2Cl)c1F` (stereo partly drawn) [F1828, 2-Chloro-5-((1R,3R)-2,2-dichloro-3-(4-fluoro-3-(trifluoromethyl)phenyl)cyclopropane-1-carboxamido)-N-(3-(2-(difluoromethoxy)propanamido)-2,4-difluorophenyl)benzamide], the pest or weed control at 50 µg/cm2 in test [1] (setting [7]) and in test [2] (setting [8]) was 50 to 100% in each case.
As to `Cc1cc(NC(=O)CCCN)ccc1NC(=O)c1cc(NC(=O)[C@H]2[C@H](c3ccc(Cl)c(Cl)c3)C2(Cl)Cl)ccc1Cl` (relative stereo) [F1202, trans-N-(4-(4-Aminobutanamido)-2-methylphenyl)-2-chloro-5-(2,2-dichloro-3-(3,4-dichlorophenyl)cyclopropane-1-carboxamido)benzamide], the pest or weed control at 50 µg/cm2 in test [1] (setting [3]) and in test [2] (setting [4]) was 50 to 100% throughout.
For the compound `O=C(NNCc1cc(F)ccc1F)c1cc(NC(=O)[C@H]2[C@H](c3cc(Cl)cc(Cl)c3)C2(Cl)Cl)ccc1Cl` (relative stereo) [F2546, trans-2,2-Dichloro-N-(4-chloro-3-(2-(2,5-difluorobenzyl)hydrazine-1-carbonyl)phenyl)-3-(3,5-dichlorophenyl)cyclopropane-1-carboxamide], the pest or weed control at 50 µg/cm2 in test [1] (setting [7]) and in test [2] (setting [8]) was 50 to 100% in each case.
In the case of `O=C(Nc1cc(F)c(NC(=O)C(F)F)c(F)c1)c1cc(NC(=O)[C@H]2[C@H](c3ccc(Cl)c(Cl)c3)C2(Cl)Cl)ccc1Cl` (relative stereo) [F1122, trans-2-Chloro-5-(2,2-dichloro-3-(3,4-dichlorophenyl)cyclopropane-1-carboxamido)-N-(4-(2,2-difluoroacetamido)-3,5-difluorophenyl)benzamide], the pest or weed control at 50 µg/cm2 in test [1] (setting [3]) and in test [2] (setting [4]) was 50 to 100% throughout.
